Experimental data taken from patent US20250090557A1 (priority 2020, published 2025).
“Also recorded” adds a separate entry of the source. Where a name gives a salt, the structure may show the parent alone. Read-outs that look alike come from different tables or passages of the source.

What was measured:
[1] = tested on: SARS-CoV-2; assay type: cell-based
[2] = tested on: Nrf2; assay: Nrf2 protein levels in Calu3 cells (flow cytometry); assay type: cell-based, human; details: infected and uninfected Calu3, pretreatment, data not shown
[3] = tested on: Keap1; assay: Keap1 protein levels in Calu3 cells (flow cytometry); assay type: cell-based, human; details: infected and uninfected Calu3, pretreatment, data not shown
[4] = tested on: HO-1; assay: HO-1 protein levels in Calu3 cells (flow cytometry); assay type: cell-based, human
[5] = tested on: IL-6; assay type: cell-based, human
[6] = tested on: Calu3 cells
[7] = tested on: uninfected cultures; details: 10-1000 nM
[8] = Calu3, 0.25 μM pretreatment, data not shown

Molecule: COC(=O)/C=C/C(=O)OC [DMF, dimethyl fumarate]
- viral titers / antiviral effect vs vehicle control (TCID50) ([1]; Calu3, 10 μM DMF alone, FIG. 11-a): did not produce an observable antiviral effect; also recorded: did not reduce viral titers
- release of progeny SARS-CoV-2 virus particles to the cell supernatant (TCID50 assay) ([1]; Calu3, pretreatment with 10 μM DMF for 24 h, FIG. 5-a): reduction in subsequent release of progeny SARS-CoV-2 virus particles
- protein levels of Nrf2 [2]: did not impact protein levels of Nrf2
- protein levels of Keap [3]: reduced protein levels of Keap
- HO-1 protein levels ([4]; Calu3, pretreatment 10 μM, data not shown): increased HO-1 protein levels
- release of IL-6 from infected cells (ELISA) ([5]; Calu3, pretreatment 10 μM for 24 h): reduction in subsequent release of IL-6
- cytotoxicity (XTT assay) ([6]; uninfected Calu3, 100 μM, 24 h): cytotoxic

Molecule: CCCCCCCCCC[P+](c1ccccc1)(c1ccccc1)c1ccccc1.[Br-] [DTPP]
- antiviral activity (TCID50 assay) ([1]; Calu3, 1000 nM): Antiviral activity was observed
- cytotoxicity (XTT assay) ([6]; uninfected cells, 1000 nM): not cytotoxic

Molecule: CC1(C)CC(NC(=O)C[P+](c2ccccc2)(c2ccccc2)c2ccccc2)CC(C)(C)N1[O] [Mito-TEMPO]
- cytotoxicity (XTT assay) [7]: no observed cytotoxicity

Molecule: brusatol
- effect on the antiviral effect of DMF and Mito-MES (TCID50) ([1]; Calu3, 0.25 μM pretreatment for 24 h): inhibited the antiviral effect of both DMF alone and Mito-MES
- SARS-CoV-2 infection (flow cytometry) [1, 8]: directly enhanced SARS-CoV-2 infection
- effect on the reduction in percent infected cells induced by Mito-MES and DMF [1, 8]: attenuated the reduction in the percent of infected Calu3 cells
- release of progeny SARS-CoV-2 virus particles to the cell supernatant (TCID50) ([1]; Calu3, pretreatment with 0.25 μM): significantly increased subsequent release of progeny SARS-CoV-2 virus particles
- protein levels of Nrf2 [2]: reduced protein levels of Nrf2
- protein levels of Keap [3]: increased protein levels of Keap
- HO-1 protein levels [4]: increased the HO-1 protein levels
- impact on the effect of Mito-MES on HO-1 protein levels ([4]; Calu3, 0.25 μM, data not shown): did not have an impact on the effect of Mito-MES on HO-1 protein levels
- effect on the anti-inflammatory effect of Mito-MES (IL-6 ELISA) ([5]; Calu3, 0.25 μM): inhibited the anti-inflammatory effect of Mito-MES
- release of IL-6 to the cell supernatant from infected cells (ELISA) ([5]; Calu3, pretreatment 0.25 μM): significantly increased subsequent release of IL-6
